In the experiment the test system is colon cancer (HT-29) cells. The experiment in a line: XTT assay, relative viability of colon cancer (HT-29) cells. It counts as cell-based. To be noted: after 24 hours. As to the method: Samples were prepared by introducing the nano contrast agents (CIONPs) and the iron oxide (Fe3O4) nanoparticle drug carriers (DOX-CIONPs) prepared in Examples 2 and 3 and anti-cancer medicines (Doxorubicine) into colon cancer (HT-29) cells by concentrations of 0.001, 0.01, 0.1, 1 and 10 mM. After 24 hours, XTT reagent was added to each sample and relative viability of cancer cells according to the concentration of CIONPs, DOX-CIONPs and anti-cancer medicines (Doxorubicine) were measured. The measurement was carried out by comparing optical absorbances of formazan products from the cancer cells using an absorption spectrometer (XTT assay).
Background: Tetrazolium dyes change colour on reduction, which living cells bring about.

The compound `COc1cccc2c1C(=O)c1c(O)c3c(c(O)c1C2=O)C[C@@](O)(C(=O)CO)C[C@@H]3O[C@H]1C[C@H](N)[C@H](O)[C@H](C)O1` [Doxorubicine] gave a cancer cells perished (0.1 mM) of 35%, a cancer cells perished (1 mM) of 60% and a cancer cells perished (10 nm (so in the source)) of 62%.
